Results taken from patent publication US20230234943A1, “TREX1 INHIBITORS AND USES THEREOF” (Tempest Therapeutics, Inc., priority 2020, published 2023).

Target: T1, Human TREX1 enzyme (amino acids 1-242) (Homo sapiens, UniProt Q9NSU2)
T1 construct: Human TREX1 enzyme (amino acids 1-242)
T1 sequence (Q9NSU2 1-242): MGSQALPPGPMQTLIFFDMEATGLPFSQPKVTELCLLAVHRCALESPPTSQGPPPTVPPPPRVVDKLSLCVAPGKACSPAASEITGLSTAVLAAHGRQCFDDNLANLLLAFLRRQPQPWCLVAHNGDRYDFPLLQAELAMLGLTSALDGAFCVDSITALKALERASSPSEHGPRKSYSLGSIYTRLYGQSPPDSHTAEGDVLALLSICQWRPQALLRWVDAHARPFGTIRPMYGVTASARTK
Experiment: Human TREX1 enzymatic assay with dsDNA native oligonucleotide (Picogreen fluorescence)
Format: biochemical
Conditions: 2 mM dithiothreitol in assay buffer; 50 nM dsDNA oligonucleotide; 30 min preincubation at 25° C.; read-out: TREX1/Human + DTT IC50 AVG
Method: Example A. Human TREX1 Enzymatic Assay with dsDNA Native Oligonucleotide
Human TREX1 enzyme (amino acids 1-242) was diluted in assay buffer (20 mM Tris pH 7.7, 5 mM MgCl2, 0.01% human serum albumin, 0.01% Brij™-35, 2 mM dithiothreitol) to a final concentration of 0.8 nM to 0.16 nM and added to a 96-well low-binding polypropylene plate. Test compounds were diluted in DMSO to 50× concentration (final DMSO concentration in reaction mixture of 2%) and added to the wells with a concentration ranging from 300 μM to 13 nM or 30 μM to 1.5 nM. The reaction mixtures were incubated for 30 minutes at 25° C. and a solution of annealed dsDNA oligonucleotide (5′-[…]-3′ and Comp: 5′-[…]-3′) was added to a final concentration of 50 nM. The reaction mixtures were incubated at 25° C. for 5-15 minutes and subsequently quenched by transferring part of the assay reaction to a solution of 100 mM ethylenediaminetetraacetic acid and 1:100 Picogreen™ (final concentration of […]) in a black plate with an opaque bottom. The fluorescence ([…]) was measured using a Molecular Devices SpectraMax plate reader. Wells containing oligonucleotide but no TREX1 enzyme were used as negative controls. Wells containing oligonucleotide, TREX1 enzyme, and DMSO were used as positive controls.

Compound | IC50 [µM]
COc1cc(-c2nc3cc(N4CCN(C)CC4)ccc3n2C)cc(O)c1O [Example 35, 3-methoxy-5-(1-methyl-5-(4-methylpiperazin-1-yl)-1H-benzo[d]imidazol-2-yl)benzene-1,2-diol] | > 100
COc1cc(-c2nc3ncccc3n2C2COC2)cc(O)c1O [Example 36, 3-methoxy-5-(1-(oxetan-3-yl)-1H-imidazo[4,5-b]pyridin-2-yl)benzene-1,2-diol] | > 100
COc1cc(-c2nc3c(-c4ccccc4)ncnc3[nH]2)cc(O)c1O [Example 37, 3-methoxy-5-(6-phenyl-9H-purin-8-yl)benzene-1,2-diol] | > 100
COc1cc(-c2nc3ccc(N4CCN(C)CC4)cc3n2C)cc(O)c1O [Example 38, 3-methoxy-5-(1-methyl-6-(4-methylpiperazin-1-yl)-1H-benzo[d]imidazol-2-yl)benzene-1,2-diol] | > 100
COc1cc(-c2nc3ccc(S(=O)(=O)Nc4ccccc4)cc3n2C2COC2)cc(O)c1O [Example 39, 2-(3,4-dihydroxy-5-methoxyphenyl)-1-(oxetan-3-yl)-N-phenyl-1H-benzo[d]imidazole-6-sulfonamide] | 10 to 100
CC(C)COc1cc(-c2nc3cccnc3n2CC(C)C)cc(O)c1O [Example 40, 3-isobutoxy-5-(3-isobutyl-3H-imidazo[4,5-b]pyridin-2-yl)benzene-1,2-diol] | > 100
COc1cc(-c2nc3c(C)ncnc3[nH]2)cc(O)c1O [Example 41, 3-methoxy-5-(6-methyl-9H-purin-8-yl)benzene-1,2-diol] | > 100
COc1cc(-c2nc3ccc(S(=O)(=O)Nc4ccccc4)cc3n2C(CO)CCl)cc(O)c1O (stereo not shown) [Example 42, 1-(1-chloro-3-hydroxypropan-2-yl)-2-(3,4-dihydroxy-5-methoxyphenyl)-N-phenyl-1H-benzo[d]imidazole-6-sulfonamide] | 10 to 100
COc1cc(-c2nc3ccncc3n2C2COC2)cc(O)c1O [Example 43, 3-methoxy-5-(3-(oxetan-3-yl)-3H-imidazo[4,5-c]pyridin-2-yl)benzene-1,2-diol] | 10 to 100
COc1cc(-c2nc3ccncc3n2C)cc(O)c1O [Example 44, 3-methoxy-5-(3-methyl-3H-imidazo[4,5-c]pyridin-2-yl)benzene-1,2-diol] | > 100
COc1cc(-c2nc3cnccc3n2C)cc(O)c1O [Example 45, 3-methoxy-5-(1-methyl-1H-imidazo[4,5-c]pyridin-2-yl)benzene-1,2-diol] | > 100
COc1cc(-c2nc3cc(S(=O)(=O)Nc4ccccc4)ccc3n2C2COC2)cc(O)c1O [Example 46, 2-(3,4-dihydroxy-5-methoxyphenyl)-1-(oxetan-3-yl)-N-phenyl-1H-benzo[d]imidazole-5-sulfonamide] | 10 to 100
COc1cc(-c2nc3cnccc3n2C2COC2)cc(O)c1O [Example 47, 3-methoxy-5-(1-(oxetan-3-yl)-1H-imidazo[4,5-c]pyridin-2-yl)benzene-1,2-diol] | 10 to 100
COc1cc(-c2nc3cc(N4CCCCC4)ccc3[nH]2)cc(O)c1O [Example 48, 3-methoxy-5-(5-(piperidin-1-yl)-1H-benzo[d]imidazol-2-yl)benzene-1,2-diol] | > 100
COc1cc(-c2nc3cc(N4CCC(c5ccccc5)CC4)ccc3[nH]2)cc(O)c1O [Example 49, 3-methoxy-5-(5-(4-phenylpiperidin-1-yl)-1H-benzo[d]imidazol-2-yl)benzene-1,2-diol] | > 100
COc1cc(-c2nc3cc(N4CCN(S(C)(=O)=O)CC4)ccc3[nH]2)cc(O)c1O [Example 50, 3-methoxy-5-(5-(4-(methylsulfonyl)piperazin-1-yl)-1H-benzo[d]imidazol-2-yl)benzene-1,2-diol] | 1 to 10
COc1cc(-c2nc3ccc(N4CCN(C)CC4)cc3n2C2COC2)cc(O)c1O [Example 51, 3-methoxy-5-(6-(4-methylpiperazin-1-yl)-1-(oxetan-3-yl)-1H-benzo[d]imidazol-2-yl)benzene-1,2-diol] | > 100
COc1cc(-c2nc3cc(N4CCN(CC(F)(F)F)CC4)ccc3[nH]2)cc(O)c1O [Example 52, 3-methoxy-5-(5-(4-(2,2,2-trifluoroethyl)piperazin-1-yl)-1H-benzo[d]imidazol-2-yl)benzene-1,2-diol] | > 100
COc1cc(-c2nc3cc(N4CCN(c5ccccc5)CC4)ccc3[nH]2)cc(O)c1O [Example 53, 3-methoxy-5-(5-(4-phenylpiperazin-1-yl)-1H-benzo[d]imidazol-2-yl)benzene-1,2-diol] | > 100

Compound | IC50 [µM]
COc1cc(-c2nc3ccncc3n2C)c(C)c(O)c1O [Example 54, 6-methoxy-3-methyl-4-(3-methyl-3H-imidazo[4,5-c]pyridin-2-yl)benzene-1,2-diol] | 10 to 100
COc1cc(-c2nc3cc(N4CCOCC4)ncc3[nH]2)cc(O)c1O [Example 55, 3-methoxy-5-(6-morpholino-3H-imidazo[4,5-c]pyridin-2-yl)benzene-1,2-diol] | > 100
O=C(O)c1ccc(-c2nc3ccccc3n2C2COC2)cc1O [Example 56, 2-hydroxy-4-(1-(oxetan-3-yl)-1H-benzo[d]imidazol-2-yl)benzoic acid] | > 100
COc1cc(-c2nc3cc(N4CCN(C5CCCCC5)CC4)ccc3[nH]2)cc(O)c1O [Example 57, 5-(5-(4-cyclohexylpiperazin-1-yl)-1H-benzo[d]imidazol-2-yl)-3-methoxybenzene-1,2-diol] | > 100
COc1cc(-c2nc3cc(C4CCNCC4)ccc3[nH]2)cc(O)c1O [Example 58, 3-methoxy-5-(5-(piperidin-4-yl)-1H-benzo[d]imidazol-2-yl)benzene-1,2-diol] | > 100
COc1cc(-c2nc3cc(N4CCN(Cc5ccccc5)CC4)ccc3[nH]2)cc(O)c1O [Example 59, 5-(5-(4-benzylpiperazin-1-yl)-1H-benzo[d]imidazol-2-yl)-3-methoxybenzene-1,2-diol] | 10 to 100
COc1cc(-c2nc3cc(N4CCN(C)CC4)ccc3n2C2COC2)cc(O)c1O [Example 60, 3-methoxy-5-(5-(4-methylpiperazin-1-yl)-1-(oxetan-3-yl)-1H-benzo[d]imidazol-2-yl)benzene-1,2-diol] | 10 to 100
COCCN1CCN(c2ccc3[nH]c(-c4cc(O)c(O)c(OC)c4)nc3c2)CC1 [Example 61, 3-methoxy-5-(5-(4-(2-methoxyethyl)piperazin-1-yl)-1H-benzo[d]imidazol-2-yl)benzene-1,2-diol] | > 100
COc1cc(-c2nc3cc(N4CCN(c5cccnc5)CC4)ccc3[nH]2)cc(O)c1O [Example 62, 3-methoxy-5-(5-(4-(pyridin-3-yl)piperazin-1-yl)-1H-benzo[d]imidazol-2-yl)benzene-1,2-diol] | 1 to 10
COc1cc(-c2nc3ccc(N4CCOCC4)cc3n2C)cc(O)c1O [Example 63, 3-methoxy-5-(1-methyl-6-morpholino-1H-benzo[d]imidazol-2-yl)benzene-1,2-diol] | 10 to 100
COc1c(O)c(O)c(C)c(-c2nc3ccccc3[nH]2)c1F [Example 64, 4-(1H-benzo[d]imidazol-2-yl)-5-fluoro-6-methoxy-3-methylbenzene-1,2-diol] | 10 to 100
CCCCN1CCN(c2ccc3[nH]c(-c4cc(O)c(O)c(OC)c4)nc3c2)CC1 [Example 65, 5-(5-(4-butylpiperazin-1-yl)-1H-benzo[d]imidazol-2-yl)-3-methoxybenzene-1,2-diol] | > 100
COc1cc(-c2nc3cc(N4CCN(CCF)CC4)ccc3[nH]2)cc(O)c1O [Example 66, 5-(5-(4-(2-fluoroethyl)piperazin-1-yl)-1H-benzo[d]imidazol-2-yl)-3-methoxybenzene-1,2-diol] | 10 to 100
COc1ccc2c(c1)CCN(c1ccc3[nH]c(-c4cc(O)c(O)c(OC)c4)nc3c1)C2 [Example 67, 3-methoxy-5-(5-(6-methoxy-3,4-dihydroisoquinolin-2(1H)-yl)-1H-benzo[d]imidazol-2-yl)benzene-1,2-diol] | > 100
COc1cc(-c2nc3cc(C4CCN(C)CC4)ccc3[nH]2)cc(O)c1O [Example 68, 3-methoxy-5-(5-(1-methylpiperidin-4-yl)-1H-benzo[d]imidazol-2-yl)benzene-1,2-diol] | > 100
COc1cc(-c2nc3cc(-c4ccccc4)ccc3[nH]2)cc(O)c1O [Example 69, 3-methoxy-5-(5-phenyl-1H-benzo[d]imidazol-2-yl)benzene-1,2-diol] | > 100
COc1cc(-c2nc3cc(N4CCOCC4)cnc3[nH]2)cc(O)c1O [Example 70, 3-methoxy-5-(6-morpholino-3H-imidazo[4,5-b]pyridin-2-yl)benzene-1,2-diol] | > 100
O=C(O)c1cc(-c2nc3ccncc3[nH]2)ccc1O [Example 71, 2-hydroxy-5-(3H-imidazo[4,5-c]pyridin-2-yl)benzoic acid] | 10 to 100
